Experiment in all cases: Anaerobic cultures, gut bacterial groups by fluorescent in situ hybridisation at 24 hours
Holding throughout (type): cell-based

The subject of one assay is Clostridia. The following applies: for Clostridia count, 24: 24 hours, anaerobic culture, inoculum 7.55; for Clostridia, 24 hr % change: 24 hr vs inoculum. The procedure:
(§1) In these experiments, anaerobic cultures were tested to evaluate the in vitro utilisation of a novel Lactobacillus reuteri galactooligosaccharide by monitoring the populations of gut bacterial groups at 24 hours using fluorescent in situ hybridisation, and short-chain fatty acid (SCFA). Fructooligosaccharides (FOS), melibiose and raffinose were used as reference carbohydrates.

A further assay has as its system Bifidobacteria. The procedure:
as §1

The next assay relates to E. coli. The procedure: as §1
The next assay concerns Bacteroides. The procedure: as §1
A further assay has as its system Total count. The procedure: as §1
Another assay deals with Lactobacilli. The procedure: as §1
The next assay relates to Eubacteria. The procedure: as §1

Take `OC[C@H]1O[C@H](OC[C@H]2O[C@H](O[C@]3(CO)O[C@H](CO)[C@@H](O)[C@@H]3O)[C@H](O)[C@@H](O)[C@@H]2O)[C@H](O)[C@@H](O)[C@H]1O` [Raffinose, raffinose]: in the assay on Clostridia, the “Clostridia count, 24” value is given as 7.81 and the “Clostridia, 24 hr % change” value was 103%.

For `OC[C@H]1O[C@H](OCC2O[C@@H](O)[C@H](O)[C@@H](O)[C@@H]2O)[C@H](O)[C@@H](O)[C@H]1O` (stereo partly shown) [Melibiose, melibiose], in the assay on Bifidobacteria (24 hours, anaerobic culture, inoculum 6.85), the “Bifidobacteria count, 24” value is 7.33. Further, in the assay with Bifidobacteria (24 hr vs inoculum), the “Bifidobacteria, 24 hr % change” value was 107%. For the same molecule, in the assay with Clostridia, the “Clostridia count, 24” value is 7.65 and the “Clostridia, 24 hr % change” value was found to be 101%. The “E. coli count, 24” value in the assay on E. coli (24 hours, anaerobic culture, inoculum 8.14) turned out to be 7.66. Also, in the assay with E. coli (24 hr vs inoculum), the “E. coli, 24 hr % change” value is 94%. The “Bacteroides count, 24” value in the assay on Bacteroides (24 hours, anaerobic culture, inoculum 7.98) was found to be 7.9. For the same molecule, the “Bacteroides, 24 hr % change” value with Bacteroides (24 hr vs inoculum) worked out at 99%. The “Total count, 24” value in the assay with Total count (24 hours, anaerobic culture, inoculum 8.84) amounted to 9.14. For the same molecule, the “Total count, 24 hr % change” value in the assay on Total count (24 hr vs inoculum) was 103%. Also, the “Lactobacilli count, 24” value in the assay with Lactobacilli (24 hours, anaerobic culture, inoculum 7.15) stood at 7.43. Besides, the “Lactobacilli, 24 hr % change” value with Lactobacilli (24 hr vs inoculum) was 104%. Further, the “Eubacteria count, 24” value in the assay on Eubacteria (24 hours, anaerobic culture, inoculum 8.06) is recorded as 7.84. Further, the “Eubacteria, 24 hr % change” value in the assay on Eubacteria (24 hr vs inoculum) was determined as 97%.

Source of the values: patent publication US11173170B2, “Prebiotic composition and its methods of production” (Optibiotix Limited, priority 2014, dated 2021).
